Reference: patent US20210283107A1, “Methods to Expand the Spectrum of Gram-Positive Antibiotics” (NORTH CAROLINA STATE UNIVERSITY, priority 2016, published 2021)

Assays:
Type in all cases: cell-based, Acinetobacter baumannii
[1] = test system: A. baumannii mutant AB1310; assay: Dose dependent resistance suppression (antibiotic MIC with compound) in AB1310
Protocol: There was no notable reduction in antibiotic MIC observed with either compound and both strains 522 and 1310. […] Even at the highest concentration, no potentiation was observed.
Day Cultures (6 h) were subcultured to 5×10^5 CFU/mL in cation adjusted Mueller-Hinton broth (CAMHB). […] One milliliter of the resulting solution was aliquoted into a separate culture tube and was dosed with antibiotic so that the resulting concentration was the highest desirable concentration to be tested. Bacteria treated with antibiotic alone were used as a control. Row one of a 96-well plate was filled with 200 μL of the antibiotic/compound solution, and the remaining rows were filled with 100 μL of the remaining 4 mL bacterial subculture. The wells in row one were mixed five times before 100 μL was transferred to the following row (row two). Row two was then mixed five times, and 100 μL was transferred to row three. This process was repeated until the second to last row had been reached. The last row is left unexposed to antibiotic in order to serve as a negative control. The antibiotic only treated bacteria was plated by aliquoting 200 μL of the treated bacteria into row one and filling the remaining rows with untreated bacteria from the original bacteria subculture. The rows were mixed in the same way as described above. Plates were covered with Glad Press n'Seal and were incubated under stationary conditions at 37° C. for 16 hours. MIC values were recorded as the lowest concentration at which no bacterial growth was observed. Fold reductions were determined by comparison of the compound treated wells with the antibiotic only treated control wells.

A. baumannii strain 4052 = assay: Potentiation of clarithromycin and vancomycin against clinical isolate; conditions: with compound at 30 μM
How it was run: (§1)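 Clinical isolates from 6 h day cultures were diluted to 5×10^5 CFU/mL in cation-adjusted Mueller-Hinton broth. Antibiotic was serially diluted twofold with test compound, then plates were incubated static at 37° C for 16 h. MIC was the lowest concentration without visible growth; fold reduction was taken relative to antibiotic-only wells.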

A. baumannii strain 4269 = assay: as above; conditions: with compound at 30 μM
How it was run: as §1

A. baumannii strain 5197 = assay: as above; conditions: with compound at 30 μM
How it was run: as §1

A. baumannii strain 4878 = assay: as above; conditions: with compound at 30 μM
How it was run: as §1

A. baumannii strain 4027 = assay: as above; conditions: with compound at 30 μM
How it was run: as §1

A. baumannii strain 3806 = assay: as above; conditions: with compound at 30 μM
How it was run: as §1

A. baumannii strain 4448 = assay: as above; conditions: with compound at 30 μM
How it was run: as §1

A. baumannii strain 4456 = assay: as above; conditions: with compound at 30 μM
How it was run: as §1

A. baumannii strain 5001 = assay: as above; conditions: with compound at 30 μM
How it was run: as §1

A. baumannii strain 5711 = assay: as above; conditions: with compound at 30 μM
How it was run: as §1

A. baumannii strain 4795 = assay: as above; conditions: with compound at 30 μM
How it was run: as §1

A. baumannii strain 4857 = assay: as above; conditions: with compound at 30 μM
How it was run: as §1

A. baumannii strain 8967 = assay: as above; conditions: with compound at 30 μM
How it was run: as §1

A. baumannii strain 3785 = assay: as above; conditions: with compound at 30 μM
How it was run: as §1

A. baumannii strain 3927 = assay: as above; conditions: with compound at 30 μM
How it was run: as §1

A. baumannii strain 4026 = assay: as above; conditions: with compound at 30 μM
How it was run: as §1

A. baumannii strain 4957 = assay: as above; conditions: with compound at 30 μM
How it was run: as §1

A. baumannii strain 4498 = assay: as above; conditions: with compound at 30 μM
How it was run: as §1

A. baumannii strain 4991 = assay: as above; conditions: with compound at 30 μM
How it was run: as §1

Nc1nc(-c2ccc(NC(=O)c3cc(Cl)cc(Cl)c3)cc2)c[nH]1 [Compound 1]
Azithromycin MIC ([1]; compound Conc. Tested 2 (μM)): 4 µg/mL
Clarithromycin MIC ([1]; compound Conc. Tested 2 (μM)): 1 µg/mL
Erythromycin MIC ([1]; compound Conc. Tested 2 (μM)): 4 µg/mL
Vancomycin MIC ([1]; compound Conc. Tested 2 (μM)): 64 µg/mL
Azithromycin MIC ([1]; compound Conc. Tested 3 (μM)): 4 µg/mL
Clarithromycin MIC ([1]; compound Conc. Tested 3 (μM)): 1 µg/mL
Erythromycin MIC ([1]; compound Conc. Tested 3 (μM)): 2 µg/mL
Vancomycin MIC ([1]; compound Conc. Tested 3 (μM)): 64 µg/mL
Azithromycin MIC ([1]; compound Conc. Tested 4 (μM)): 4 µg/mL
Clarithromycin MIC ([1]; compound Conc. Tested 4 (μM)): 0.5 µg/mL
Erythromycin MIC ([1]; compound Conc. Tested 4 (μM)): 4 µg/mL
Vancomycin MIC ([1]; compound Conc. Tested 4 (μM)): 64 µg/mL
Azithromycin MIC ([1]; compound Conc. Tested 5 (μM)): 4 µg/mL
Clarithromycin MIC ([1]; compound Conc. Tested 5 (μM)): 0.5 µg/mL
Erythromycin MIC ([1]; compound Conc. Tested 5 (μM)): 2 µg/mL
Vancomycin MIC ([1]; compound Conc. Tested 5 (μM)): 32 µg/mL
Clarithromycin MIC (A. baumannii strain 4052): ≤0.25 µg/mL
Vancomycin MIC (A. baumannii strain 4052): 4 µg/mL
Clarithromycin MIC (A. baumannii strain 4269): ≤0.25 µg/mL
Vancomycin MIC (A. baumannii strain 4269): 2 µg/mL
Clarithromycin MIC (A. baumannii strain 5197): 0.5 µg/mL
Vancomycin MIC (A. baumannii strain 5197): 16 µg/mL
Clarithromycin MIC (A. baumannii strain 4878): 0.5 µg/mL
Vancomycin MIC (A. baumannii strain 4878): 2 µg/mL
Clarithromycin MIC (A. baumannii strain 4027): ≤0.25 µg/mL
Vancomycin MIC (A. baumannii strain 4027): 1 µg/mL
Clarithromycin MIC (A. baumannii strain 3806): 0.25 µg/mL
Vancomycin MIC (A. baumannii strain 3806): 2 µg/mL
Clarithromycin MIC (A. baumannii strain 4448): ≤0.25 µg/mL
Vancomycin MIC (A. baumannii strain 4448): 1 µg/mL
Clarithromycin MIC (A. baumannii strain 4456): 0.5 µg/mL
Vancomycin MIC (A. baumannii strain 4456): 16 µg/mL
Clarithromycin MIC (A. baumannii strain 5001): 0.5 µg/mL
Vancomycin MIC (A. baumannii strain 5001): 2 µg/mL
Clarithromycin MIC (A. baumannii strain 5711): 0.5 µg/mL
Vancomycin MIC (A. baumannii strain 5711): 8 µg/mL
Clarithromycin MIC (A. baumannii strain 4795): 0.5 µg/mL
Vancomycin MIC (A. baumannii strain 4795): 4 µg/mL
Clarithromycin MIC (A. baumannii strain 4857): 0.5 µg/mL
Vancomycin MIC (μg/mL) (A. baumannii strain 4857): Toxic
Clarithromycin MIC (A. baumannii strain 8967): 0.25 µg/mL
Vancomycin MIC (A. baumannii strain 8967): 4 µg/mL
Clarithromycin MIC (A. baumannii strain 3785): 0.5 µg/mL
Vancomycin MIC (A. baumannii strain 3785): 1 µg/mL
Clarithromycin MIC (A. baumannii strain 3927): 0.5 µg/mL
Vancomycin MIC (A. baumannii strain 3927): 8 µg/mL
Clarithromycin MIC (A. baumannii strain 4026): 0.5 µg/mL
Vancomycin MIC (A. baumannii strain 4026): 2 µg/mL
Clarithromycin MIC (A. baumannii strain 4957): 0.5 µg/mL
Vancomycin MIC (A. baumannii strain 4957): 8 µg/mL
Clarithromycin MIC (A. baumannii strain 4498): ≤0.25 µg/mL
Vancomycin MIC (A. baumannii strain 4498): 1 µg/mL
Clarithromycin MIC (A. baumannii strain 4991): 0.5 µg/mL
Vancomycin MIC (A. baumannii strain 4991): 32 µg/mL

Nc1nc(-c2ccc(NC(=O)c3cc(Br)cc(Br)c3)cc2)c[nH]1 [Compound 4]
Azithromycin MIC ([1]; compound Conc. Tested 2 (μM)): 4 µg/mL
Clarithromycin MIC ([1]; compound Conc. Tested 2 (μM)): 2 µg/mL
Erythromycin MIC ([1]; compound Conc. Tested 2 (μM)): 4 µg/mL
Vancomycin MIC ([1]; compound Conc. Tested 2 (μM)): 64 µg/mL
Azithromycin MIC ([1]; compound Conc. Tested 3 (μM)): 4 µg/mL
Clarithromycin MIC ([1]; compound Conc. Tested 3 (μM)): 1 µg/mL
Erythromycin MIC ([1]; compound Conc. Tested 3 (μM)): 2 µg/mL
Vancomycin MIC ([1]; compound Conc. Tested 3 (μM)): 32 µg/mL
Azithromycin MIC ([1]; compound Conc. Tested 4 (μM)): 4 µg/mL
Clarithromycin MIC ([1]; compound Conc. Tested 4 (μM)): 1 µg/mL
Erythromycin MIC ([1]; compound Conc. Tested 4 (μM)): 2 µg/mL
Vancomycin MIC ([1]; compound Conc. Tested 4 (μM)): 32 µg/mL
Azithromycin MIC ([1]; compound Conc. Tested 5 (μM)): 4 µg/mL
Clarithromycin MIC ([1]; compound Conc. Tested 5 (μM)): 0.5 µg/mL
Erythromycin MIC ([1]; compound Conc. Tested 5 (μM)): 2 µg/mL
Vancomycin MIC ([1]; compound Conc. Tested 5 (μM)): 32 µg/mL
Clarithromycin MIC (A. baumannii strain 4052): ≤0.25 µg/mL
Vancomycin MIC (A. baumannii strain 4052): 64 µg/mL
Clarithromycin MIC (A. baumannii strain 4269): ≤0.25 µg/mL
Vancomycin MIC (A. baumannii strain 4269): 64 µg/mL
Clarithromycin MIC (A. baumannii strain 5197): 0.5 µg/mL
Vancomycin MIC (A. baumannii strain 5197): 8 µg/mL
Clarithromycin MIC (A. baumannii strain 4878): 1 µg/mL
Vancomycin MIC (A. baumannii strain 4878): 1 µg/mL
Clarithromycin MIC (A. baumannii strain 4027): 0.25 µg/mL
Vancomycin MIC (A. baumannii strain 4027): 32 µg/mL
Clarithromycin MIC (A. baumannii strain 3806): ≤0.125 µg/mL
Vancomycin MIC (A. baumannii strain 3806): 32 µg/mL
Clarithromycin MIC (A. baumannii strain 4448): ≤0.25 µg/mL
Vancomycin MIC (A. baumannii strain 4448): 4 µg/mL
Clarithromycin MIC (A. baumannii strain 4456): ≤0.25 µg/mL
Vancomycin MIC (A. baumannii strain 4456): 64 µg/mL
Clarithromycin MIC (A. baumannii strain 5001): 0.5 µg/mL
Vancomycin MIC (A. baumannii strain 5001): 1 µg/mL
Clarithromycin MIC (A. baumannii strain 5711): 0.5 µg/mL
Vancomycin MIC (A. baumannii strain 5711): 64 µg/mL
Clarithromycin MIC (A. baumannii strain 4795): 0.5 µg/mL
Vancomycin MIC (A. baumannii strain 4795): 4 µg/mL
Clarithromycin MIC (A. baumannii strain 4857): 0.5 µg/mL
Vancomycin MIC (μg/mL) (A. baumannii strain 4857): Toxic
Clarithromycin MIC (A. baumannii strain 8967): 0.25 µg/mL
Vancomycin MIC (A. baumannii strain 8967): 8 µg/mL
Clarithromycin MIC (A. baumannii strain 3785): 0.5 µg/mL
Vancomycin MIC (A. baumannii strain 3785): 128 µg/mL
Clarithromycin MIC (A. baumannii strain 3927): 0.5 µg/mL
Vancomycin MIC (A. baumannii strain 3927): 64 µg/mL
Clarithromycin MIC (A. baumannii strain 4026): 1 µg/mL
Vancomycin MIC (A. baumannii strain 4026): 16 µg/mL
Clarithromycin MIC (A. baumannii strain 4957): 0.5 µg/mL
Vancomycin MIC (A. baumannii strain 4957): 8 µg/mL
Clarithromycin MIC (A. baumannii strain 4498): ≤0.25 µg/mL
Vancomycin MIC (A. baumannii strain 4498): 16 µg/mL
Clarithromycin MIC (A. baumannii strain 4991): 0.5 µg/mL
Vancomycin MIC (A. baumannii strain 4991): 32 µg/mL
